Experimental data: patent US8158803B2, “Heterocyclic antiviral compounds” (Roche Palo Alto LLC, priority 2009, dated 2012)
Like-named read-outs stand apart in the source and are kept apart here.

Key:
[1] = tested on: HCV; conditions: cited from earlier work
[2] = biological target: T1, HCV polymerase (NS5B570n-Con1) (Hepatitis C virus genotype 1b, UniProt Q9WMX2); assay: HCV NS5B RNA polymerase activity assay; type: biochemical, HCV Con1 strain
T1 construct: contains a 21 amino acid deletion at the C-terminus relative to the full-length HCV polymerase; 6-histidine (N); made in house; host or cells: E. coli BL21(DE) pLysS, plasmid pET17b
Method: The enzymatic activity of HCV polymerase (NS5B570n-Con1) was measured as the incorporation of radiolabeled nucleotide monophosphates into acid insoluble RNA products. Unincorporated radiolabeled substrate was removed by filtration and scintillant was added to the washed and dried filter plate containing radiolabeled RNA product. The amount of RNA product generated by NS5B570-Con1 at the end of the reaction was directly proportional to the amount of light emitted by the scintillant.
The N-terminal 6-histidine tagged HCV polymerase, derived from HCV Con1 strain, genotype 1b (NS5B570n-Con1) contains a 21 amino acid deletion at the C-terminus relative to the full-length HCV polymerase and was purified from E. coli strain BL21(DE) pLysS. The construct, containing the coding sequence of HCV NS5B Con1 (GenBank accession number AJ242654) was inserted into the plasmid construct pET17b, downstream of a T7 promoter expression cassette and transformed into E. coli. A single colony was grown overnight as a starter culture and later used inoculate 10 L of LB media supplemented with 100 μg/mL ampicillin at 37° C. Protein expression was induced by the addition of 0.25 mM isopropyl-β-D-thiogalactopyranoside (IPTG) when optical density at […] of the culture was between 0.6 and 0.8 and cells were harvested after 16 to 18 h at 30° C. NS5B570n-Con1 was purified to homogeneity using a three-step protocol including subsequent column chromatography on Ni-NTA, SP-Sepharose HP and Superdex 75 resins.
Reaction mixtures were assembled in 96-well filter plates (cat #MADVN0B, Millipore Co.) and incubated for 2 h at 30° C. Reactions were stopped by addition of 10% final (v/v) trichloroacetic acid and incubated for 40 min at 4° C. […]
The amount of light emitted from the scintillant was converted to counts per minute (CPM) on a Topcount® plate reader (Perkin-Elmer, Energy Range: Low, Efficiency Mode Normal, Count Time: 1 min, Background Subtract: none, Cross talk reduction: Off).
Data was analyzed in Excel® (Microsoft) and ActivityBase® (Idbs®). […] All data was expressed as a percentage of the positive control. […]

[3] = tested on: genotype 1b HCV replicon in Huh7 cell line 2209-23; assay: HCV replicon assay (Renilla luciferase reporter); type: cell-based; conditions: 2209-23 cells, three days incubation
[4] = tested on: HCV replicon cells (2209-23); conditions: read-out: Cytotoxicity CC50; 2209-23 cells, WST-1
[5] = in vitro; conditions: human

## NC(=O)c1ncn([C@@H]2O[C@H](CO)[C@@H](O)[C@H]2O)n1 [ribavirin, 1-((2R,3R,4S,5R)-3,4-Dihydroxy-5-hydroxymethyl-tetrahydro-furan-2-yl)-1H-[1,2,4]triazole-3-carboxylic acid amide]
[1]; human, in vivo
  toxicity: exhibits significant toxicity and is known to induce anemia
[1]; monotherapy
  patients with serum amino transferase levels reduced to normal: 40%

## CC(C)(C)c1cc(-c2ccc[nH]c2=O)cc(C2CC2c2ccc(NS(C)(=O)=O)cc2)c1 (centres unmarked) [Compound I-1, N-(4-{2-[3-tert-Butyl-5-(2-oxo-1,2-dihydro-pyridin-3-yl)-phenyl]-cyclopropyl}-phenyl)-methanesulfonamide]
[2]
  IC50: 0.021 µM
other
  melting point: 162 to 164 °C

## N-(6-{2-[3-tert-Butyl-6-hydroxy-2-methoxy-5-(2-oxo-1,2-dihydro-pyridin-3-yl)-phenyl]-cyclopropyl}-pyridin-3-yl)-methanesulfonamide [Compound I-4]
[3]
  IC50: 0.078 µM
[4]
  CC50: 32.8 µM
[2]; NS5B570n-Con1, genotype 1b, read-out: IC50 HCV Polymerase Assay
  IC50: 0.008 µM

## CC(C)(C)c1cc(-c2ccc[nH]c2=O)c(O)c(C2CC2c2ccc(NS(C)(=O)=O)cc2)c1 (centres unmarked) [Compound I-3, N-(4-{2-[5-tert-Butyl-2-hydroxy-3-(2-oxo-1,2-dihydro-pyridin-3-yl)-phenyl]-cyclopropyl}-phenyl)-methanesulfonamide]
[2]
  IC50: 0.012 µM
other
  melting point: 148 to 150 °C

## COc1c(C2CC2c2ccc(NS(C)(=O)=O)cc2)cc(-c2ccc[nH]c2=O)cc1C(C)(C)C (centres unmarked) [Compound I-2, N-(4-{2-[3-tert-Butyl-2-methoxy-5-(2-oxo-1,2-dihydro-pyridin-3-yl)-phenyl]-cyclopropyl}-phenyl)-methanesulfonamide]
[5]
  CC50: 15 µM
[3]; Hepatitis C virus, Huh-7, 72 h
  IC50: 0.109 µM
